Results on 23 compounds are retold here after the supplement of paper PMC7108870.

Each structure is given as a SMILES string.

Assay [1] has as its system HEK293sieSTAT3(Y640F). The assay is described as follows: drug sensitivity score (DSS), cytotoxicity CellTox Green (DSS (dimensionless)); higher = more cytotoxic; extreme values may be limits of the assay. Conditions: 72 h; STAT3 variant: Y640F (constitutively active). In outline:
(§1)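 Each value is one representative of two experiments in which HEK293 cells overexpressing wild-type or mutant STAT3 with a STAT3-dependent luciferase reporter were exposed to compounds at 5 concentrations (10-fold dilutions) for 72 hours at 37°C and 5% CO2. Readouts were CellTox Green fluorescence and then CellTiter-Glo luminescence, normalised to negative and positive control wells. The drug sensitivity score was based on the dose-response curve area and computed in Breeze.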

Assay [2] concerns HEK293sieSTAT3(wt). The assay is described as above. The settings on record: 72 h; STAT3 variant: wild type. The essentials: as §1
Assay [3] concerns HEK293sieSTAT3(Y640F). The assay can be described thus: drug sensitivity score (DSS), viability CellTiter-Glo (DSS (dimensionless)); higher = more growth inhibition; extreme values may be limits of the assay. Conditions: 72 h; STAT3 variant: Y640F (constitutively active). In outline: as §1
Assay [4] concerns HEK293sieSTAT3(wt). Described as above. Conditions: 72 h; STAT3 variant: wild type. In outline:
as §1

For the compound `COc1ccc(C[C@H](NC(=O)[C@H](C)NC(=O)CN2CCOCC2)C(=O)N[C@@H](Cc2ccccc2)C(=O)C2(C)CO2)cc1` (stereo in doubt) [ONX-0914] (top concentration tested 10000 nM), the drug sensitivity score in assay [1] is 18.6; in assay [2], 19.9; in assay [3], 19.9; in assay [4], 21.7.
Regarding `Cc1ccc(C(=O)N(CCCN)[C@@H](c2oc3cc(Cl)ccc3c(=O)c2Cc2ccccc2)C(C)C)cc1` (top concentration tested 100 nM), the drug sensitivity score turned out to be 0.83 in assay [1], 8.48 in assay [2], 10.7 in assay [3] and 12.3 in assay [4].
For `CCn1cc(-c2ccnc3[nH]c(-c4cccc(CN(C)C)c4)cc23)c(-c2ccc(NC(=O)N(C)C)cc2)n1` (top concentration tested 1000 nM), the drug sensitivity score came to 0 in assay [1], 0.19 in assay [2], 4.73 in assay [3] and 5.64 in assay [4].
The like results for `CN1CCC(COc2cnc(-c3cccc(Cn4nc(-c5cccc(C#N)c5)ccc4=O)c3)nc2)CC1` (top concentration tested 1000 nM) were, in that order, 0, 0, 0 and 0.
Consider `CNC(=O)c1ccc(C)c(-n2c(C)cc(OCc3ccc(F)cc3F)c(Br)c2=O)c1` (top concentration tested 1000 nM), for which the drug sensitivity score in assay [1] was 0; in assay [2] it was 0; in assay [3], 4.08; in assay [4], 3.62.
Turning to `C[C@@H](Oc1ccc2[nH]nc(/C=C/c3cnn(CCO)c3)c2c1)c1c(Cl)cncc1Cl` (top concentration tested 1000 nM), the drug sensitivity score in assay [1] turned out to be 0; in assay [2], 0; in assay [3], 6.64; in assay [4] it was 5.39.
As to `C[C@H]1Oc2cc(cnc2N)-c2c(nn(C)c2C#N)CN(C)C(=O)c2ccc(F)cc21` (top concentration tested 1000 nM), the drug sensitivity score in assay [1] came out at 0; in assay [2], 0; in assay [3], 5.03; in assay [4] it was 1.84.
`O=C(NOC[C@H](O)CO)c1ccc(F)c(F)c1Nc1ccc(I)cc1F` (top concentration tested 1000 nM): the drug sensitivity score in assay [1], in assay [2], in assay [3] and in assay [4] was 0 in each case.
With `CCOc1ccn(-c2ccc(F)cc2)c(=O)c1C(=O)Nc1ccc(Oc2ccnc(N)c2Cl)c(F)c1` (top concentration tested 2500 nM), the drug sensitivity score in assay [1] stood at 0; in assay [2], 0; in assay [3], 0.75; in assay [4], 4.83.
Regarding `Cc1cccc(CC(=O)N2CCc3c2ccc(-c2cn(C)c4ncnc(N)c24)c3F)n1` (top concentration tested 2500 nM), the drug sensitivity score in assay [1] was 0; in assay [2] it was 0.89; in assay [3], 0; in assay [4] it was 0.
In the case of `OCCn1cc(-c2cnc3nnn(Cc4ccc5ncccc5c4)c3n2)cn1` (top concentration tested 2500 nM), the drug sensitivity score stood at 0 in assay [1], 0.12 in assay [2], 1.78 in assay [3] and 0 in assay [4].
As to `CNC(=O)c1ccccc1Nc1nc(Nc2ccc3c(c2OC)CCC[C@H](N2CCN(CCO)CC2)C3)ncc1Cl` (top concentration tested 5000 nM), the drug sensitivity score in assay [1] turned out to be 0; in assay [2], 6.35; in assay [3] it was 7.82; in assay [4], 9.3.
Taken in the same sequence, the figures for `Cc1ncc(Cl)cc1NCc1ccc(C(=O)N[C@@H](CC2CCCC2)C(=O)NC2CC2)s1` (top concentration tested 5000 nM) were 0.4, 0, 4.24 and 0.63.
For `CC(=O)NCC(=O)N1[C@@H]2CC[C@H]1c1ccc(Nc3ncc(C(F)(F)F)c(NC4CCC4)n3)cc12` (top concentration tested 10000 nM), the drug sensitivity score in assay [1] is 1.98; in assay [2], 8.9; in assay [3], 13.2; in assay [4], 16.8.
The like results for `CC(C)(C)C[C@@H]1N[C@@H](C(=O)N[C@H]2CC[C@H](O)CC2)[C@H](c2cccc(Cl)c2F)[C@]12C(=O)Nc1cc(Cl)ccc12` (top concentration tested 10000 nM) were, in that order, 2.22, 2.72, 3.68 and 4.33.
Taken in the same sequence, the figures for `CC(C)CC(=O)Nc1n[nH]c2c1CN(C(=O)C1CCN(C)CC1)C2(C)C` (top concentration tested 10000 nM) were 4.64, 19, 12.4 and 13.4.
The like results for `CC(C)Oc1ccc(C(=O)N[C@H](CNC(=O)CN(C)C)Cc2ccc(-c3cn4cccc([C@H](C)O)c4n3)cc2)cc1Cl` (top concentration tested 10000 nM) were, in that order, 2.45, 11.4, 14.7 and 15.3.
Regarding `CCNC(=O)C[C@@H]1N=C(c2ccc(Cl)cc2)c2cc(OC)ccc2-n2c(C)nnc21` (top concentration tested 10000 nM), the drug sensitivity score in assay [1] came to 0.87; in assay [2] it was 5.42; in assay [3], 9.51; in assay [4] it was 4.81.
Taken in the same sequence, the figures for `CCn1c(-c2nonc2N)nc2c(C#CC(C)(C)O)ncc(OC[C@H]3CCCNC3)c21` (top concentration tested 10000 nM) were 0.19, 1.28, 13.7 and 16.9.
Regarding `CCn1c(C(=O)N(C2CC2)C2CC2)cc2c3c(ncn3C)c(Nc3cc(C)n(C)n3)nc21` (top concentration tested 10000 nM), the drug sensitivity score in assay [1] was 0; in assay [2], 0; in assay [3], 0.09; in assay [4], 0.76.
As for `CN(c1ncccc1CNc1nc(Nc2ccc3c(c2)CC(=O)N3)ncc1C(F)(F)F)S(C)(=O)=O` (top concentration tested 10000 nM), the drug sensitivity score in assay [1] turned out to be 1.32; in assay [2], 7.18; in assay [3], 8.82; in assay [4], 12.
Taken in the same sequence, the figures for `CNc1nc(-c2ccc3c(N)n[nH]c3c2)cc(N2C[C@@H](C(=O)NC3CCCCC3)CC[C@H]2C)n1` (top concentration tested 10000 nM) were 0.35, 0, 1.37 and 4.33.
For the compound `CNc1ncc2cc(-c3cc(NC(=O)NCCC(C)(C)C)c(F)cc3C)c(C)nc2n1` (top concentration tested 10000 nM), the drug sensitivity score was found to be 0 in assay [1], 0.9 in assay [2], 5.64 in assay [3] and 3.99 in assay [4].
